The values below come from US9981918B2, “Kynurenine-3-monooxygenase inhibitors, pharmaceutical compositions, and methods of use thereof” (CHDI Foundation, Inc., priority 2011, dated 2018).

For the experiment, the system named is KMO. As to the kind of experiment: KMO inhibition: L-Kynurenine hydroxylation to 3-Hydroxy-Kynurenine monitored by LC/MS. The format is biochemical. To be noted: compound at 10 uM; footnote: some portion of activity of amides may be due to contribution of acid precursor. The protocol:
A generalized procedure for monitoring L-Kynurenine (KYN) hydroxylation to form product 3-Hydroxy-Kynurenine (30H-KYN) by LC/MS is described below. Product is quantified by multiple reaction monitoring using MS.
A method of monitoring L-Kynurenine (KYN) hydroxylation to form product 3-Hydroxy-Kynurenine (30H-KYN) by LC/MS is described below. Product is quantified by multiple reaction monitoring.
• Compound: Stock concentrations: 10 mM in 100% DMSO • Enzyme: KMO enzyme prepared at Evotec via mitochondria isolation from CHO-GST HIS KMO cells • Substrate: L-Kynurenine (Sigma: Cat# K3750) • [stock concentration: 10 mM in 100 mM potassium phosphate buffer, pH 7.4]
A method of monitoring L-Kynurenine (KYN) hydroxylation to form 3-Hydroxy-Kynurenine (30H-KYN) by LC/MS is described. Product is quantified by multiple reaction monitoring (MRM method).
As to `COCc1ccc(-c2cc(C(=O)O)ncn2)cc1Cl` [6-[3-chloro-4-(methoxymethyl)phenyl]pyrimidine-4-carboxylic acid], the “% Inhibition at 10 uM*” value was 105%. As for `O=C(O)c1ncnc(-c2ccc(OC3CC3)c(Cl)c2)c1CO` [6-(3-chloro-4-cyclopropoxyphenyl)-5-(hydroxymethyl)pyrimidine-4-carboxylic acid], the “% Inhibition at 10 uM*” value was 100%. For the molecule `Cn1c(=O)oc2c(Cl)cc(-c3cc(C(=O)O)ncn3)cc21` [6-(7-chloro-3-methyl-2-oxo-2,3-dihydro-1,3-benzoxazol-5-yl)pyrimidine-4-carboxylic acid], the “% Inhibition at 10 uM*” value came out at 100%. On to `CCC(C)Oc1ccc(-c2cc(C(=O)O)ncn2)cc1Cl` (stereo in doubt) [6-(4-(S)-sec-Butoxy-3-chloro-phenyl)-pyrimidine-4-carboxylic acid], for which the “% Inhibition at 10 uM*” value was 100%. As for `O=C(O)c1cc(-c2cc(Cl)c3nccnc3c2)ncn1` [6-(8-chloroquinoxalin-6-yl)pyrimidine-4-carboxylic acid], the “% Inhibition at 10 uM*” value is given as 102%. Then `O=C([O-])c1cc(-c2cc(Cl)c3ncccc3c2)ncn1.[Na+]` [6-(8-chloroquinolin-6-yl)pyrimidine-4-carboxylate], with 100%. `CN1CCCc2cc(-c3cc(C(=O)O)ncn3)cc(Cl)c21` [6-(8-chloro-1-methyl-1,2,3,4-tetrahydroquinolin-6-yl)pyrimidine-4-carboxylic acid]: the “% Inhibition at 10 uM*” value is recorded as 100%. In the case of `C[S+]([O-])c1ccc(-c2cc(C(=O)O)ncn2)cc1Cl` (stereo not shown) [6-[3-chloro-4-(methylsulfinyl)phenyl]pyrimidine-4-carboxylic acid], the “% Inhibition at 10 uM*” value is given as 100%. With `O=C(Nc1cccnc1)c1cc(-c2ccc(Cl)c(OC3CCOC3)c2)ncn1` (stereo not shown) [6-[4-Chloro-3-(tetrahydro-furan-3-yloxy)-phenyl]-pyrimidine-4-carboxylic acid pyridin-3-ylamide], the “% Inhibition at 10 uM*” value was 88.39%.

Regarding `O=C(O)c1cc(-c2cc(Cl)c3c(c2)CCCN3)ncn1` [6-(8-chloro-1,2,3,4-tetrahydroquinolin-6-yl)pyrimidine-4-carboxylate], the “% Inhibition at 10 uM*” value was determined as 100%.

For `O=C(O)c1cc(-c2cc(Cl)c3c(c2)CCO3)ncn1` [6-(7-chloro-2,3-dihydro-1-benzofuran-5-yl)pyrimidine-4-carboxylic acid], the “% Inhibition at 10 uM*” value came out at 102%. Regarding `CC(C)c1ccc(-c2cc(C(=O)O)ncn2)cc1Cl` [6-(3-Chloro-4-isopropyl-phenyl)-pyrimidine-4-carboxylic acid], the “% Inhibition at 10 uM*” value came to 100%. Regarding `CSc1ccc(-c2cc(C(=O)O)ncn2)cc1Cl` [6-[3-chloro-4-(methylsulfanyl)phenyl]pyrimidine-4-carboxylic acid], the “% Inhibition at 10 uM*” value was 103%. `O=S(=O)(Nc1cc(-c2ccc(OC3CC3)c(Cl)c2)ncn1)C1CC1` [N-[6-(3-chloro-4-cyclopropoxyphenyl)pyrimidin-4-yl]cyclopropanesulfonamide]: the “% Inhibition at 10 uM*” value was found to be 33%.

As to `O=C(O)c1cc(-c2cc(Cl)c3occc3c2)ncn1` [6-(7-Chloro-benzofuran-5-yl)-pyrimidine-4-carboxylic acid], the “% Inhibition at 10 uM*” value is 100%. For the molecule `O=C(O)c1cc(-c2ccc(OC3CC3)c(Cl)c2)ncn1` [6-(3-Chloro-4-cyclopropoxy-phenyl)-pyrimidine-4-carboxylic acid], the “% Inhibition at 10 uM*” value is listed as 100%.

Take `O=C1OCCc2c1ncnc2-c1ccc(OC2CC2)c(Cl)c1` [4-(3-chloro-4-cyclopropoxyphenyl)-5H,6H,8H-pyrano[3,4-d]pyrimidin-8-one]: the “% Inhibition at 10 uM*” value amounted to 100%. In the case of `O=C(O)c1cc(-c2ccc(NC3CC3)c(Cl)c2)ncn1` [6-[3-chloro-4-(cyclopropylamino)phenyl]pyrimidine-4-carboxylic acid], the “% Inhibition at 10 uM*” value amounted to 101%. As for `O=C(O)c1cc(-c2ccc(OCCN3CCCCC3)c(Cl)c2)ncn1` [6-[3-Chloro-4-(2-piperidin-1-yl-ethoxy)-phenyl]-pyrimidine-4-carboxylic acid], the “% Inhibition at 10 uM*” value worked out at 90%.

On to `Cc1nc(C(=O)O)cc(-c2ccc(C)c(F)c2)n1` [6-(3-Fluoro-4-methyl-phenyl)-2-methyl-pyrimidine-4-carboxylic acid], for which the “% Inhibition at 10 uM*” value is recorded as 96%. On to `O=C1OCc2c1ncnc2-c1ccc(OC2CC2)c(Cl)c1` [4-(3-chloro-4-cyclopropoxyphenyl)-5H,7H-furo[3,4-d]pyrimidin-7-one], for which the “% Inhibition at 10 uM*” value turned out to be 100%.

For `O=C(O)c1cc(-c2ccc3ncccc3c2)ncn1` [6-Quinolin-6-yl-pyrimidine-4-carboxylic acid], the “% Inhibition at 10 uM*” value is 100%. For `COC(C)c1ccc(-c2cc(C(=O)O)ncn2)cc1Cl` (stereo not shown) [6-[3-chloro-4-(1-methoxyethyl)phenyl]pyrimidine-4-carboxylic acid], the “% Inhibition at 10 uM*” value came out at 101%. As to `CCC(C)Oc1ccc(-c2ccnc(C(=O)O)c2)cc1Cl` (stereo in doubt) [listing 1 of 2 here], the “% Inhibition at 10 uM*” value stood at 82%. As to `Nc1cc(-c2cc(C(=O)O)ncn2)ccc1Cl` [6-(3-Amino-4-chloro-phenyl)-pyrimidine-4-carboxylic acid], the “% Inhibition at 10 uM*” value came out at 101.01%.

In the case of `O=S(=O)(Nc1cc(-c2ccc(OC3CC3)c(Cl)c2)ncn1)c1ccc(F)cc1` [N-[6-(3-chloro-4-cyclopropoxyphenyl)pyrimidin-4-yl]-4-fluorobenzene-1-sulfonamide], the “% Inhibition at 10 uM*” value came to 98%. Consider `CN(C)Cc1ccc(-c2cc(C(=O)O)ncn2)cc1Cl` [6-{3-chloro-4-[(dimethylamino)methyl]phenyl}pyrimidine-4-carboxylic acid], for which the “% Inhibition at 10 uM*” value turned out to be 65%. As for `CCC(C)Oc1ccc(-c2ccnc(C(=O)O)c2)cc1Cl` (stereo in doubt) [listing 2 of 2 here], the “% Inhibition at 10 uM*” value is recorded as 50%. As for `O=C(O)c1cc(-c2ccc(C(=O)C3CC3)c(Cl)c2)ncn1` [6-(3-chloro-4-cyclopropanecarbonylphenyl)pyrimidine-4-carboxylic acid], the “% Inhibition at 10 uM*” value came out at 101%. Consider `O=C(O)c1cc(-c2ccc(OC3CC3)c(Cl)c2)ccn1` [4-(3-Chloro-4-cyclopropoxy-phenyl)-pyridine-2-carboxylic acid], for which the “% Inhibition at 10 uM*” value was determined as 100%. Take `O=C(O)c1cc(-c2ccc(OC3CCNC3)c(Cl)c2)ncn1` (stereo not shown) [6-[3-Chloro-4-(pyrrolidin-3-yloxy)-phenyl]-pyrimidine-4-carboxylic acid]: the “% Inhibition at 10 uM*” value was determined as 80%.
